Data on four compounds can be found in patent US9776997B2, “3-aryl-substituted imidazo[1,2-A]pyridines and their use” (Bayer Pharma Aktiengesellschaft, priority 2013, dated 2017).

The assay concerns the target T1, recombinant guanylate cyclase reporter cell line (Rattus norvegicus, UniProt P19686+P20595).
T1 construct: expressed in transfected cells; host or cells: recombinant reporter cell line
T1 sequence (P19686 1-690): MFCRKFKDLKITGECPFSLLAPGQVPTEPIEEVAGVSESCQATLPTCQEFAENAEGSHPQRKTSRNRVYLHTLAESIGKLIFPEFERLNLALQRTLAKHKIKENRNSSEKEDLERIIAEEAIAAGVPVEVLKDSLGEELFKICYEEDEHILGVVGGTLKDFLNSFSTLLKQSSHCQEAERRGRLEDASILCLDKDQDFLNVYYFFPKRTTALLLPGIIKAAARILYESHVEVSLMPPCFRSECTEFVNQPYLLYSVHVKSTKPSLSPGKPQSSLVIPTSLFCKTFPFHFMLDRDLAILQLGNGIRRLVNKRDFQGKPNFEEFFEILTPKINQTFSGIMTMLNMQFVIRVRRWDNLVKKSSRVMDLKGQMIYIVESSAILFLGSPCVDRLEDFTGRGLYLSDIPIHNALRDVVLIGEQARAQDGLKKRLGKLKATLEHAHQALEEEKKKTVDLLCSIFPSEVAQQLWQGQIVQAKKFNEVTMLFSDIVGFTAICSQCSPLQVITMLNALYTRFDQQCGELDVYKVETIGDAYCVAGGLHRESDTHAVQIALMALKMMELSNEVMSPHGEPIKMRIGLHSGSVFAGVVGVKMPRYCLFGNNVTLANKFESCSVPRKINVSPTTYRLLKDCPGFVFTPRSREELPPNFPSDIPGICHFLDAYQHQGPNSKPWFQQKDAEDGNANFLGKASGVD
T1 sequence (P20595 1-619): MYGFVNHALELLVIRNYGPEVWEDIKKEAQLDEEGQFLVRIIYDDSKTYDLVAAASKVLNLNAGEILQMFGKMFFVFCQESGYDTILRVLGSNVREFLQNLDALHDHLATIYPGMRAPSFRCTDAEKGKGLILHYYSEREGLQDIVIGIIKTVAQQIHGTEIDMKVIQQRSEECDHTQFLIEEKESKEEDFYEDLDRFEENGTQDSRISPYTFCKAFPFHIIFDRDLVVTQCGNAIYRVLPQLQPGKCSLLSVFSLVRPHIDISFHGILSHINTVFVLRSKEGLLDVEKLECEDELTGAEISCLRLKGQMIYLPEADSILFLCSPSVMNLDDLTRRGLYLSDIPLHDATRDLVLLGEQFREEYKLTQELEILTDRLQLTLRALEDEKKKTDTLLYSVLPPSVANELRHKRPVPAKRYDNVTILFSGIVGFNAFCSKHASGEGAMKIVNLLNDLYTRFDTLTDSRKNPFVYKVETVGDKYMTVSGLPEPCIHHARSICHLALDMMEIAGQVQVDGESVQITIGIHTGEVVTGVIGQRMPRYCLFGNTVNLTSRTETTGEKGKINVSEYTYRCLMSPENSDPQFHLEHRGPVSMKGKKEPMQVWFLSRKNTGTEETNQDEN
The assay is described as follows: Effect on a recombinant guanylate cyclase reporter cell line. In kind it is cell-based. The conditions noted are these: MEC = minimum effective concentration; in some cases mean values for individual determinations. Here is the method: B-2. Effect on a Recombinant Guanylate Cyclase Reporter Cell Line
The cellular effect of the inventive compounds is determined using a recombinant guanylate cyclase reporter cell line, as described in F. Wunder et al., Anal. Biochem. 339, 104-112 (2005).
Representative MEC values (MEC=minimum effective concentration) for the inventive compounds are shown in the table below (in some cases as mean values for individual determinations): […]
On to `CCOC(=O)c1cc(-c2c(C)nc3c(OCc4c(F)cccc4F)cc(C)cn23)on1` [Example 141, Ethyl 5-{8-[(2,6-difluorobenzyl)oxy]-2,6-dimethylimidazo[1,2-a]pyridin-3-yl}-1,2-oxazole-3-carboxylate], for which the MEC was determined as 1.0 µM.
The same measure for `Cc1cc(OCc2c(F)cccc2F)c2nc(C)c(-c3cc(CO)no3)n2c1` [Example 142, (5-{8-[(2,6-Difluorobenzyl)oxy]-2,6-dimethylimidazo[1,2-a]pyridin-3-yl}-1,2-oxazol-3-yl)methanol]: 0.1 µM.
The same measure for `Cc1cc(OCc2c(F)cccc2F)c2nc(C)c(-c3cc(CC(C)(C)N)n[nH]3)n2c1` [Example 143, 1-(3-{8-[(2,6-Difluorobenzyl)oxy]-2,6-dimethylimidazo[1,2-a]pyridin-3-yl}-1H-pyrazol-5-yl)-2-methylpropan-2-amine]: 1.0 µM; for `Cc1cc(OCc2c(F)cccc2F)c2nc(C)c(-c3cc(CC(C)(C)N)no3)n2c1` [Example 144, 1-(5-{8-[(2,6-Difluorobenzyl)oxy]-2,6-dimethylimidazo[1,2-a]pyridin-3-yl}-1,2-oxazol-3-yl)-2-methylpropan-2-amine]: 0.3 µM.
